# Data: PubChem BioAssay AID232 (DTP/NCI, 2004)
# “And” between values parts separate entries of the source, which are not always exact repeats. Equal entries are not always repeated. Inconclusive results and toxic doses are left out. Numbered stars: 1 amine (or outer) side, 2 acyl side, 3 side chain; on linkers, the order of the positions; unused ones are H or OH. Bridge positions count the residues as written; N and C are the ends. Square brackets hold non-standard residues; d marks the D form. Peptide text beside a SMILES is read from it. I, II: the chains in the order shown. Actinocin(9to1) = Cc1c2oc3c(C)ccc(C(=O)[*:1])c3nc-2c(C(=O)[*:2])c(N)c1=O; aThr = C[C@H](O)[C@H](N)C(=O)O; NMeV = CN[C@H](C(=O)O)C(C)C; Sar = CNCC(=O)O
# System: Gardner 6C3HED lymphosarcoma ip, C3AKF1 mice, survival T/C
# Assay: NCI In Vivo Anticancer Drug Screen. Data for tumor model Lymphosarcoma Gardner 6C3HED (intraperitoneal) in C3AKF1 (CHKRF1) mice
# Details: endpoint: survival time, mean or median, higher = longer survival
# Procedure: The antitumor activity of compounds was measured in mice bearing transplantable tumors. Survival or tumor size were measured and the results are expressed as the measurement made in the treated group (T) divided by the measurement made in the vehicle treated control group (C). The tumor model used in this assay is Lymphosarcoma Gardner 6C3HED (intraperitoneal) in C3AKF1 (CHKRF1) mice
# [1] = dose: 2.5 mg/kg/injection, schedule: Q01DX010 (ip), vehicle: saline
# [2] = dose: 5.0 mg/kg/injection, schedule: Q01DX010 (ip), vehicle: saline
# [3] = dose: 10.0 mg/kg/injection, schedule: Q01DX010 (ip), vehicle: saline
# [4] = dose: 4.0 mg/kg/injection, schedule: Q01DX010 (ip), vehicle: other
# [5] = dose: 8.0 mg/kg/injection, schedule: Q01DX010 (ip), vehicle: other
# [6] = dose: 16.0 mg/kg/injection, schedule: Q01DX010 (ip), vehicle: other
# [7] = dose: 32.0 mg/kg/injection, schedule: Q01DX010 (ip), vehicle: other
# [8] = dose: 2.0 mg/kg/injection, schedule: Q01DX010 (ip), vehicle: saline
# [9] = dose: 4.0 mg/kg/injection, schedule: Q01DX010 (ip), vehicle: saline
# [10] = dose: 8.0 mg/kg/injection, schedule: Q01DX010 (ip), vehicle: saline
# [11] = dose: 16.0 mg/kg/injection, schedule: Q01DX010 (ip), vehicle: saline
# [12] = dose: 0.13 mg/kg/injection, schedule: Q01DX010 (ip), vehicle: saline
# [13] = dose: 20.0 mg/kg/injection, schedule: Q01DX010 (ip), vehicle: saline
# [14] = dose: 25.0 mg/kg/injection, schedule: Q01DX010 (ip), vehicle: saline
# [15] = dose: 31.3 mg/kg/injection, schedule: Q01DX010 (ip), vehicle: saline
# [16] = dose: 62.5 mg/kg/injection, schedule: Q01DX010 (ip), vehicle: saline
# [17] = dose: 125.0 mg/kg/injection, schedule: Q01DX010 (ip), vehicle: saline
# [18] = dose: 500.0 mg/kg/injection, schedule: Q01DX010 (ip), vehicle: saline
# [19] = dose: 12.0 mg/kg/injection, schedule: Q01DX010 (ip), vehicle: saline
# [20] = dose: 1.0 mg/kg/injection, schedule: Q01DX010 (ip), vehicle: saline
# [21] = dose: 40.0 mg/kg/injection, schedule: Q01DX010 (ip), vehicle: saline
compound,measurement,setting,value
Nc1nc(=S)c2[nH]cnc2[nH]1,T/C,"dose: 1.25 mg/kg/injection, schedule: Q01DX010 (ip), vehicle: other",95 % of control and 100 % of control
same,T/C,"dose: 1.25 mg/kg/injection, schedule: Q01DX010 (ip), vehicle: saline",120 % of control
same,T/C,"dose: 2.5 mg/kg/injection, schedule: Q01DX010 (ip), vehicle: other",104 % of control
same,T/C,[1],100 % of control and 110 % of control
same,T/C,"dose: 5.0 mg/kg/injection, schedule: Q01DX010 (ip), vehicle: other",113 % of control
same,T/C,[2],100 % of control and 105 % of control
same,T/C,"dose: 10.0 mg/kg/injection, schedule: Q01DX010 (ip), vehicle: other",95 % of control
same,T/C,[3],100 % of control and 120 % of control
O=C(Nc1ccc(C2=NCCN2)cc1)c1ccc(C(=O)Nc2ccc(C3=NCCN3)cc2)c(Cl)c1,T/C,"dose: 2.0 mg/kg/injection, schedule: Q01DX010 (ip), vehicle: other",116 % of control
same,T/C,[4],150 % of control and 159 % of control
same,T/C,[5],225 % of control and 245 % of control
same,T/C,[6],216 % of control and 268 % of control
same,T/C,[7],191 % of control and 200 % of control
O=C(Nc1ccc(C2=NCCN2)cc1)c1ccc(C(=O)Nc2ccc(C3=NCCN3)cc2)cc1,T/C,[4],179 % of control and 186 % of control
same,T/C,[5],277 % of control and 300 % of control
same,T/C,[6],229 % of control and 300 % of control
same,T/C,[7],175 % of control and 200 % of control
same,T/C,"dose: 64.0 mg/kg/injection, schedule: Q01DX010 (ip), vehicle: other",166 % of control and 200 % of control
CC(CCC(C)OS(C)(=O)=O)OS(C)(=O)=O (stereo not drawn),T/C,[8],100 % of control
same,T/C,[9],104 % of control
same,T/C,[10],104 % of control
same,T/C,[11],116 % of control
CSCS(=O)C[C@H](CO)NC(=O)/C=C/c1c(C)[nH]c(=O)[nH]c1=O (stereo partly drawn),T/C,[12],87 % of control
same,T/C,"dose: 0.25 mg/kg/injection, schedule: Q01DX010 (ip), vehicle: saline",90 % of control
same,T/C,"dose: 0.5 mg/kg/injection, schedule: Q01DX010 (ip), vehicle: saline",90 % of control and 91 % of control
Cc1cc(N(CCCl)CCCl)ccc1N=Nc1ccccc1C(=O)O,T/C,[2],109 % of control and 116 % of control
same,T/C,[3],113 % of control
same,T/C,[13],118 % of control
NC(Cc1ccc(N(CCCl)CCCl)cc1)C(=O)O (stereo not drawn),T/C,[10],160 % of control
same,T/C,[3],103 % of control
same,T/C,[11],100 % of control and 105 % of control
CC(=O)O[C@]1(C(C)=O)CC[C@H]2[C@@H]3C[C@H](C)C4=CC(=O)C=C[C@]4(C)[C@@]3(F)[C@@H](O)C[C@@]21C,T/C,"dose: 12.5 mg/kg/injection, schedule: Q01DX010 (sc), vehicle: steriod suspending solution",111 % of control
same,T/C,"dose: 25.0 mg/kg/injection, schedule: Q01DX010 (sc), vehicle: steriod suspending solution",92 % of control
same,T/C,"dose: 50.0 mg/kg/injection, schedule: Q01DX010 (sc), vehicle: steriod suspending solution",88 % of control
N=[N+]=CC(=O)OCC(N)C(=O)O (stereo not drawn),T/C,"dose: 6.25 mg/kg/injection, schedule: Q01DX010 (ip), vehicle: saline",150 % of control
same,T/C,[14],95 % of control
CCCCNc1ncnc2c1cnn2C,T/C,[15],100 % of control and 104 % of control
same,T/C,[16],95 % of control and 100 % of control
OCC1OC(n2cnc3c(Cl)ncnc32)C(O)C1O (stereo not drawn),T/C,[16],95 % of control
same,T/C,[17],90 % of control
same,T/C,"dose: 250.0 mg/kg/injection, schedule: Q01DX010 (ip), vehicle: saline",90 % of control
same,T/C,[18],90 % of control and 100 % of control
Clc1ncnc2nc[nH]c12,T/C,"dose: 7.5 mg/kg/injection, schedule: Q01DX010 (ip), vehicle: saline",87 % of control and 95 % of control
same,T/C,"dose: 15.0 mg/kg/injection, schedule: Q01DX010 (ip), vehicle: saline",95 % of control
same,T/C,"dose: 30.0 mg/kg/injection, schedule: Q01DX010 (ip), vehicle: saline",95 % of control
CCOC(=O)NP(=O)(N1CC1(C)C)N1CC1(C)C (stereo not drawn),T/C,[15],103 % of control
same,T/C,[16],111 % of control
CC(=O)Nc1ccc2nc3ccc(NC(C)=O)cc3[n+](-c3ccccc3)c2c1,T/C,"dose: 12.5 mg/kg/injection, schedule: Q01DX010 (ip), vehicle: saline",111 % of control
same,T/C,[14],107 % of control
same,T/C,"dose: 50.0 mg/kg/injection, schedule: Q01DX010 (ip), vehicle: saline",103 % of control
same,T/C,"dose: 100.0 mg/kg/injection, schedule: Q01DX010 (ip), vehicle: saline",103 % of control
Nc1ncnc2[nH]ncc12,T/C,"dose: 1.5 mg/kg/injection, schedule: Q01DX010 (ip), vehicle: saline",95 % of control and 110 % of control
same,T/C,"dose: 3.0 mg/kg/injection, schedule: Q01DX010 (ip), vehicle: saline",100 % of control and 104 % of control
same,T/C,"dose: 6.0 mg/kg/injection, schedule: Q01DX010 (ip), vehicle: saline",95 % of control
same,T/C,[19],95 % of control
same,T/C,[11],90 % of control
CS(=O)(=O)OCCN(CCOS(C)(=O)=O)c1ccc(N=O)cc1,T/C,[20],107 % of control
CC[C@]1(O)C[C@H]2CN(CCc3c([nH]c4ccccc34)[C@@](C(=O)OC)(c3cc4c(cc3OC)N(C=O)[C@H]3[C@@](O)(C(=O)OC)[C@H](OC(C)=O)[C@]5(CC)C=CCN6CC[C@]43[C@@H]65)C2)C1,T/C,"dose: 0.12 mg/kg/injection, schedule: Q01DX010 (ip), vehicle: saline",250 % of control
same,T/C,[12],285 % of control and 300 % of control
N#[N+]c1cnc([O-])[nH]c1=O,T/C,[1],175 % of control
same,T/C,[2],158 % of control
same,T/C,[3],162 % of control
O=c1cnn(C2OC(CO)C(O)C2O)c(=O)[nH]1 (stereo not drawn),T/C,"dose: 200.0 mg/kg/injection, schedule: Q01DX010 (ip), vehicle: saline",105 % of control and 115 % of control
same,T/C,"dose: 400.0 mg/kg/injection, schedule: Q01DX010 (ip), vehicle: saline",115 % of control
same,T/C,"dose: 800.0 mg/kg/injection, schedule: Q01DX010 (ip), vehicle: saline",110 % of control and 120 % of control
same,T/C,"dose: 1600.0 mg/kg/injection, schedule: Q01DX010 (ip), vehicle: saline",95 % of control
CCOC(N)=O,T/C,[17],91 % of control and 100 % of control
same,T/C,[18],95 % of control
S=P(N1CC1)(N1CC1)N1CC1,T/C,[20],115 % of control and 120 % of control
same,T/C,[8],120 % of control
same,T/C,[9],160 % of control
same,T/C,[10],90 % of control and 110 % of control
Cn1c(N)nc2nc[nH]c2c1=S,T/C,[3],96 % of control
same,T/C,[13],96 % of control
same,T/C,[21],107 % of control
same,T/C,"dose: 80.0 mg/kg/injection, schedule: Q01DX010 (ip), vehicle: saline",107 % of control
"Cc1c2oc3c(C)ccc(C(=O)N[C@@H]4C(=O)N[C@H](C(C)C)C(=O)N5CCC[C@H]5C(=O)N(C)CC(=O)N(C)[C@@H](C(C)C)C(=O)O[C@H]4C)c3nc-2c(C(=O)N[C@@H]2C(=O)N[C@H](C(C)C)C(=O)N3CCC[C@H]3C(=O)N(C)CC(=O)N(C)[C@@H](C(C)C)C(=O)O[C@H]2C)c(N)c1=O (I: [aThr][dV]P[Sar][NMeV] / II: [aThr][dV]P[Sar][NMeV]; ester I:1-I:C, II:1-II:C; linker I:N-II:N via Actinocin(9to1))",T/C,"dose: 0.01 mg/kg/injection, schedule: Q01DX010 (ip), vehicle: acid diluted with saline",100 % of control and 110 % of control
same,T/C,"dose: 0.03 mg/kg/injection, schedule: Q01DX010 (ip), vehicle: acid diluted with saline",120 % of control
O[C@H](CN1CC1)[C@@H](O)CN1CC1,T/C,"dose: 62.5 micrograms/kg/injection, schedule: Q01DX010 (ip), vehicle: saline",96 % of control
same,T/C,"dose: 125.0 micrograms/kg/injection, schedule: Q01DX010 (ip), vehicle: saline",92 % of control
same,T/C,"dose: 250.0 micrograms/kg/injection, schedule: Q01DX010 (ip), vehicle: saline",155 % of control
same,T/C,"dose: 500.0 micrograms/kg/injection, schedule: Q01DX010 (ip), vehicle: saline",151 % of control
O=c1[nH]cc(F)c(=O)[nH]1,T/C,[3],158 % of control
same,T/C,[13],295 % of control
same,T/C,[21],87 % of control
C[n+]1c2ccccc2nc2c(N)cc(N)cc21,T/C,[19],113 % of control
same,T/C,"dose: 18.0 mg/kg/injection, schedule: Q01DX010 (ip), vehicle: saline",122 % of control
same,T/C,[21],113 % of control
